Measurements as given in article PMC8775487, “Insights into Asparaginase from Endophytic Fungus Lasiodiplodia theobromae: Purification, Characterization and Antileukemic Activity” (International Journal of Environmental Research and Public …, 2022).

System: T1, purified asparaginase from L. theobromae
T1 construct: native extracellular enzyme purified from culture filtrate of asparagine-induced endophytic fungus (acetone, Q-FF, Sephadex G-100); about 70 kDa on SDS-PAGE
Assay: direct Nesslerization of released ammonia; Lineweaver-Burk and Michaelis-Menten plots
Type: biochemical, Lasiodiplodia theobromae
Settings: asparagine 0-20 mM; standard assay pH 7, 37 °C
Description: direct Nesslerization of released ammonia; Lineweaver-Burk and Michaelis-Menten plots on purified asparaginase from L. theobromae | Michaelis constant Km and maximum velocity Vmax of the purified asparaginase from L. theobromae were […]

NC(=O)C[C@H](N)C(=O)O [asparagine]
Km: 9.37 µM
